# Tested on: cholesterol absorption from the intestine
# Test: In Vivo Assay of Hypolipidemic Agents using the Rat Cholesterol Absorption Model
# Set-up: species or system Female Sprague-Dawley rats
# How it was run: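 Fasted female Sprague-Dawley rats (150–250 g, 4–6/group) received compound orally in olive oil or vehicle. Thirty minutes later they were given 3–5 µCi ^3H-cholesterol orally in olive oil, and serum ^3H was counted at 3 h. Percent inhibition versus vehicle control is at a fixed dose; ED50 is the dose giving half-maximal effect on serum ^3H.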
# [1] = po, Table 1, perorally, 1 mg/kg, 3H levels in serum three hours after 3H-cholesterol, versus vehicle only control
SMILES,inhibition at 1 mg/kg [1] [%],also measured
"O=C1[C@H](CC[C@H](O)c2ccc(F)cc2)[C@@H](c2ccc(-c3cccc(P(=O)(O)O)c3)cc2)N1c1ccccc1 [Example 122, (4'-{(2S,3R)-3-[(3S)-3-(4-fIuorophenyI)-3-hydroxypropyl]-4-oxo-1-phenylazetidin-2-yl}biphenyl-3-yl)phosphonic acid]",–,"% inhibition at 1 mg/kg (Table 2, perorally, 1 mg/kg, 3H levels in serum three hours after 3H-cholesterol, versus vehicle only control): 67%"
"COc1ccc(C=O)c(-c2ccc([C@@H]3[C@@H](CC[C@H](O)c4ccc(F)cc4)C(=O)N3c3ccc(F)cc3)cc2)c1 [Example 85, 4'-{(2S,3R)-1-(4-fluorophenyl)-3-[(3S)-3-(4-fluorophenyl)-3-hydroxypropyl]-4-oxoazetidin-2-yl}-5-methoxybiphenyl-2-carbaldehyde]",15,–
"CCOc1ccc(-c2ccc([C@@H]3[C@@H](CC[C@H](O)c4ccc(F)cc4)C(=O)N3c3ccc(F)cc3)cc2)cc1 [Example 101, (3R,4S)-4-(4'-ethoxybiphenyl-4-yl)-1-(4-fluorophenyl)-3-[(3S)-3-(4-fluorophenyl)-3-hydroxypropyl]azetidin-2-one]",41,–
"O=C1[C@H](CC[C@H](O)c2ccc(F)cc2)[C@@H](c2ccc(-c3cccc(OC[C@H]4OC(O)[C@H](O)[C@@H](O)[C@@H]4O)c3)cc2)N1c1ccc(F)cc1 (stereo partly drawn) [Example 76, 6-O-(4'-{(2S,3R)-1-(4-Fluorophenyl)-3-[(3S)-3-(4-fluorophenyl)-3-hydroxypropyl]-4-oxoazetidin-2-yl}biphenyl-3-yl)-D-glucopyranose]",56,–
"COc1cc(-c2ccc([C@@H]3[C@@H](CC[C@H](O)c4ccc(F)cc4)C(=O)N3c3ccc(F)cc3)cc2)ccc1O [Example 102, (3R,4S)-1-(4-fluorophenyl)-3-[(3S)-3-(4-fluorophenyl)-3-hydroxypropyl]-4-(4'-hydroxy-3'-methoxybiphenyl-4-yl)azetidin-2-one]",56,–
"O=C1[C@H](CC[C@H](O)c2ccc(F)cc2)[C@@H](c2ccc(-c3cccc(S)c3)cc2)N1c1ccc(F)cc1 [Example 119, (3R,4S)-1-(4-fluorophenyl)-3-[(3S)-3-(4-fluorophenyl)-3-hydroxypropyl]-4-(3'-mercaptobiphenyl-4-yl)azetidin-2-one]",56,–
"O=C1[C@H](CC[C@H](O)c2ccc(F)cc2)[C@@H](c2cccc(-c3cccc(O)c3)c2)N1c1ccc(F)cc1 [Example 44, (3R,4S)-1-(4-fluorophenyl)-3-[(3S)-3-(4-fluorophenyl)-3-hydroxypropyl]-4-(3'-hydroxybiphenyl-3-yl)azetidin-2-one]",–,"inhibition at 1 mg/kg (po, Table 2, perorally, 1 mg/kg, 3H levels in serum three hours after 3H-cholesterol, versus vehicle only control): 24%"
"O=C1[C@H](CC[C@H](O)c2ccc(F)cc2)[C@@H](c2ccc(-c3cccc([C@@H]4O[C@H](CO)[C@@H](O)[C@H](O)[C@H]4O)c3)cc2O)N1c1ccccc1 [Example 65, (1S)-1,5-anhydro-1-(4'-{(2S,3R)-3-[(3S)-3-(4-fluorophenyl)-3-hydroxypropyl]-4-oxo-1-phenylazetidin-2-yl}-3'-hydroxybiphenyl-3-yl)-D-glucitol]",–,"inhibition at 0.1 mg/kg (po, Table 2, footnote 5, perorally, 0.1 mg/kg): 60%"
"O=Cc1ccc(O)cc1-c1ccc([C@@H]2[C@@H](CC[C@H](O)c3ccc(F)cc3)C(=O)N2c2ccc(F)cc2)cc1 [Example 104, 4'-{(2S,3R)-1-(4-fluorophenyl)-3-[(3S)-3-(4-fluorophenyl)-3-hydroxypropyl]-4-oxoazetidin-2-yl}-5-hydroxybiphenyl-2-carbaldehyde]",52,–
"COc1ccc(-c2ccc([C@@H]3[C@@H](CC[C@H](O)c4ccc(F)cc4)C(=O)N3c3ccc(F)cc3)cc2)cc1OC [Example 81, (3R,4S)-4-(3',4'-dimethoxybiphenyl-4-yl)-1-(4-fluorophenyl)-3-[(3 S)-3-(4-fluorophenyl)-3-hydroxypropyl]azetidin-2-one]",17,–
"O=C1[C@H](CC[C@H](O)c2ccc(F)cc2)[C@@H](c2ccc(-c3cccc([C@@H](O)[C@H]4OC(O)[C@H](O)[C@@H](O)[C@@H]4O)c3)cc2)N1c1ccccc1 (stereo partly drawn) [Example 72, (6R)-6-C-(4'-{(2S,3R)-3-[(3S)-3-(4-Fluorophenyl)-3-hydroxypropyl]-4-oxo-1-phenylazetidin-2-yl}biphenyl-3-yl)-D-glucopyranose]",–,"inhibition at 0.3 mg/kg (po, Table 2, footnote 6, perorally, 0.3 mg/kg): 27%"

# — patent publication EP1832576A1, “4-Biarylyl-1-phenolyzetidin-2-ones” (Microbia Inc., priority 2003, dated 2005)
